Laboratory results reported in paper PMC4071569, “Investigation of Indolglyoxamide and Indolacetamide Analogues of Polyamines as Antimalarial and Antitrypanosomal Agents” (Marine Drugs, 2014).
Read-outs that look alike come from different tables or passages of the source.

Key:
[1] = test system: Trypanosoma brucei rhodesiense, STIB 900 strain, trypomastigotes stage; test: In vitro anti-trypanosomal activity (growth inhibition); format: cell-based; conditions: Trypanosoma brucei; STIB 900 strain, trypomastigotes; average of two independent assays; read-out: IC50 T. b. rhod.
Experimental: (§1) The in vitro activities against the protozoan parasites T.b. rhodesiense, and P. falciparum and cytotoxicity assessment against L6 cells were determined as reported elsewhere.

[2] = test system: Plasmodium falciparum, NF54 strain, IEF stage; test: In vitro antimalarial activity, NF54 drug sensitive strain; format: cell-based; conditions: for Pf SI (selectivity index for P. falciparum = IC50 L6/IC50 Pf): NF54 strain vs L6; for IC50: Plasmodium falciparum, NF54 strain, IEF stage, average of two independent assays, read-out: IC50 P. falc.
Experimental: as §1

[3] = test system: L6 rat skeletal myoblast cell line; test: Cytotoxicity towards L6 cells; format: cell-based; conditions: L6 rat skeletal myoblast cell line; average of two independent assays; read-out: IC50 L6
Experimental: as §1

[4] = test system: GFP-transfected P. berghei strain ANKA; test: In vivo anti-malarial efficacy in P. berghei infected mice; set-up: species or system Plasmodium berghei; conditions: repeated ip dose of 50 (mg/kg)/day for four days
Experimental: Analogue 20 was selected for in vivo evaluation in Plasmodium berghei infected mice. […] No increase in mean survival time was observed.
In vivo anti-malarial activity was assessed as previously described. Groups of three female NMRI mice (20–22 g) were intravenously infected with 2 × 10^7 parasitized erythrocytes on day 0 with GFP-transfected P. berghei strain ANKA [32]. Compounds were formulated in 100% DMSO, diluted 10-fold in distilled water and administered intraperitoneally in a volume of 10 mL·kg^−1 on four consecutive days (4, 24, 48 and 72 h post infection). Parasitemia was determined on day 4 post infection (24 h after last treatment) by FACS analysis. Activity was calculated as the difference between the mean per cent parasitaemia for the control (n = 5 mice) and treated groups expressed as a per cent relative to the control group. The survival of the animals was usually monitored up to 30 days: a compound was considered curative if the animal survived to day 30 after infection with no detectable parasites. In vivo efficacy studies in mice were conducted according to the rules and regulations for the protection of animal rights (“Tierschutzverordnung”) of the Swiss “Bundesamt für Veterinärwesen”. They were approved by the veterinary office of Canton Basel-Stadt, Switzerland.

[5] = test system: Trypanosoma brucei rhodesiense, STIB 900 strain, trypomastigotes stage; set-up: method as in PMID 21348447; conditions: data taken from ref 24, read-out: IC50 T. b. rhod.; cited from earlier work
[6] = test system: Plasmodium falciparum, K1 strain, IEF stage; conditions: cited from earlier work; for Pf SI (selectivity index for P. falciparum = IC50 L6/IC50 Pf): K1 strain vs L6
[7] = test system: L6 rat skeletal myoblast cell line; set-up: method as in PMID 21348447; conditions: data taken from ref 24; cited from earlier work
[8] = K1 strain, IEF stage, data taken from ref 24, read-out: IC50 P. falc.

| SMILES | IC50 [1] [µM] | IC50 [2] [µM] | Pf SI (selectivity index for P. falciparum = IC50 L6/IC50 Pf) [2] | IC50 [3] [µM] | further results |
| --- | --- | --- | --- | --- | --- |
| COc1cccc2c(C(=O)C(=O)NCCCN(CCCCCCCCN(CCCNC(=O)C(=O)c3c[nH]c4c(OC)cccc34)C(=O)OC(C)(C)C)C(=O)OC(C)(C)C)c[nH]c12 [Compound 20, Di-tert-butyl Octane-1,8-diylbis((3-(2-(7-methoxy-1H-indol-3-yl)-2-oxoacetamido)propyl)carbamate)] | 61 | 0.092 | ≥1300 | ≥ 120 | increase in mean survival time [4]: No increase; reduction in parasitaemia ([4]; parasitemia on day 4 post infection): 20.9% |
| NCCCCNCCCNC(=O)C(=O)c1c[nH]c2ccccc12 [Compound 2, didemnidine A] |  |  |  |  | IC50 [5]: 59 µM; Pf SI (selectivity index for P. falciparum = IC50 L6/IC50 Pf) ([6]; data taken from ref 24): 0.59; IC50 [6, 8]: 41 µM; IC50 [7]: 24 µM |
| NCCCCNCCCNC(=O)C(=O)c1c[nH]c2cc(Br)ccc12 [Compound 3, didemnidine B] |  |  |  |  | IC50 [5]: 44 µM; Pf SI (selectivity index for P. falciparum = IC50 L6/IC50 Pf) ([6]; data taken from ref 24): 1.7; IC50 [6, 8]: 15 µM; IC50 [7]: 25 µM |
| COc1cc(CC(=O)NCCCNCCCCNCCCNC(=O)Cc2ccc(O)c(OC)c2)ccc1O [orthidine F, reference compound] |  |  |  |  | IC50 ([6]; K1 dual drug-resistant strain, read-out: IC50 antimalarial potency (P. falciparum)): 0.89 µM |
| CC(C)(C)OC(=O)NCCCCNCCCNC(=O)C(=O)c1c[nH]c2cc(Br)ccc12 [Compound 4] |  |  |  |  | IC50 [5]: 9.9 µM; Pf SI (selectivity index for P. falciparum = IC50 L6/IC50 Pf) ([6]; data taken from ref 24): 3.0; IC50 [6, 8]: 8.4 µM; IC50 [7]: 25 µM |
| COc1ccc2[nH]cc(C(=O)C(=O)NCCCNCCCCCCCCNCCCNC(=O)C(=O)c3c[nH]c4ccc(OC)cc34)c2c1.O=C(O)C(F)(F)F.O=C(O)C(F)(F)F [Compound 26, N^1,N^8-Bis(3-(2-(5-methoxy-1H-indol-3-yl)-2-oxoacetamido)propyl)octane-1,8-diaminium 2,2,2-trifluoroacetate] | 0.78 | 0.13 | 100 | 13 |  |
| O=C(Cc1c[nH]c2ccccc12)NCCCNCCCCNCCCNC(=O)Cc1c[nH]c2ccccc12.O=C(O)C(F)(F)F.O=C(O)C(F)(F)F [Compound 36, N^1,N^4-Bis(3-(2-(1H-indol-3-yl)acetamido)propyl)butane-1,4-diaminium 2,2,2-trifluoroacetate] | 75 | 0.18 | 410 | 74 |  |

Further lines, with some results ahead:

| IC50 [1] [µM] | IC50 [2] [µM] | SMILES | Pf SI (selectivity index for P. falciparum = IC50 L6/IC50 Pf) [2] | IC50 [3] [µM] | further results |
| --- | --- | --- | --- | --- | --- |
| 6.1 | 0.14 | COc1ccc2c(C(=O)C(=O)NCCCN(CCCCCCCCN(CCCNC(=O)C(=O)c3c[nH]c4cc(OC)ccc34)C(=O)OC(C)(C)C)C(=O)OC(C)(C)C)c[nH]c2c1 [Compound 19, Di-tert-butyl Octane-1,8-diylbis((3-(2-(6-methoxy-1H-indol-3-yl)-2-oxoacetamido)propyl)carbamate)] |  | ≥ 120 | melting point: 92 °C |
| 61 | 1.8 | CC(C)(C)OC(=O)N(CCCCCCCCCCCCN(CCCNC(=O)C(=O)c1c[nH]c2ccccc12)C(=O)OC(C)(C)C)CCCNC(=O)C(=O)c1c[nH]c2ccccc12 [Compound 21, Di-tert-butyl Dodecane-1,12-diylbis((3-(2-(1H-indol-3-yl)-2-oxoacetamido)propyl)carbamate)] | ≥67 | ≥ 120 |  |
| 0.26 | 0.01 | COc1cccc2c(C(=O)C(=O)NCCCNCCCCCCCCCCCCNCCCNC(=O)C(=O)c3c[nH]c4c(OC)cccc34)c[nH]c12.O=C(O)C(F)(F)F.O=C(O)C(F)(F)F [Compound 32, N^1,N^12-Bis(3-(2-(7-methoxy-1H-indol-3-yl)-2-oxoacetamido)propyl)dodecane-1,12-diaminium 2,2,2-trifluoroacetate] | 210 | 2.1 |  |
| 7.1 | 0.16 | CC(C)(C)OC(=O)N(CCCCN(CCCNC(=O)Cc1c[nH]c2ccccc12)C(=O)OC(C)(C)C)CCCNC(=O)Cc1c[nH]c2ccccc12 [Compound 33, Di-tert-butyl Butane-1,4-diylbis((3-(2-(1H-indol-3-yl)acetamido)propyl)carbamate)] | 120 | 19 |  |
| 0.27 | 0.033 | O=C(NCCCNCCCCCCCCCCCCNCCCNC(=O)C(=O)c1c[nH]c2ccccc12)C(=O)c1c[nH]c2ccccc12.O=C(O)C(F)(F)F.O=C(O)C(F)(F)F [Compound 29, N^1,N^12-Bis(3-(2-(1H-indol-3-yl)-2-oxoacetamido)propyl)dodecane-1,12-diaminium 2,2,2-trifluoroacetate] | 70 | 2.3 |  |
